Key:
Assay type in all cases: in vivo
Myzus persicae = Myzus persicae test (spray on infested cabbage leaves)
Protocol: (§1) To produce a suitable preparation of active compound, 1 part by weight of active compound is mixed with the stated amounts of solvents and emulsifier, and the concentrate is diluted with emulsifier-containing water to the desired concentration.
Cabbage leaves (Brassica oleracea) which are heavily infested by the Green peach aphid (Myzus persicae), are treated by spraying with the active compound preparation of the desired concentration.
(§2) After the desired period of time, the kill in % is determined. 100% means that all aphids have been killed; 0% means that none of the aphids have been killed. The kill rates determined are entered into Colby's formula.

Spodoptera frugiperda = Spodoptera frugiperda larvae test (sprayed cabbage leaves)
Protocol: as §1
Cabbage leaves (Brassica oleracea) are treated by spraying with the active compound preparation of the desired concentration and are populated with larvae of the armyworm (Spodoptera frugiperda) while the leaves are still moist.
After the desired period of time, the kill in % is determined. 100% means that all caterpillars have been killed; 0% means that none of the caterpillars have been killed. The kill rates determined are entered into Colby's formula.

Phaedon cochleariae = Phaedon cochleariae larvae test (sprayed cabbage leaves)
Protocol: as §1
Cabbage leaves (Brassica oleracea) are treated by spraying with the active compound preparation of the desired concentration and are populated with larvae of the mustard beetle (Phaedon cochleariae) while the leaves are still moist.
After the desired period of time, the kill in % is determined. 100% means that all beetle larvae have been killed; 0% means that none of the beetle larvae have been killed. The kill rates determined are entered into Colby's formula.

Tetranychus urticae = test: Tetranychus test (OP-resistant/spray treatment) on bean leaf disks
Protocol: (§3) To produce a suitable preparation of active compound, 1 part by weight of active compound is mixed with the stated amounts of solvent and emulsifier, and the concentrate is diluted with emulsifier-containing water to the desired concentration.
Disks of bean leaves (Phaseolus vulgaris) which are infested by all stages of the greenhouse red spider mite (Tetranychus urticae) are sprayed with an active compound preparation of the desired concentration.
After the desired period of time, the activity in % is determined. 100% means that all spider mites have been killed; 0% means that none of the spider mites have been killed.

Aphis gossypii = Aphis gossypii test (dipped cotton leaves)
Protocol: as §3
Cotton leaves (Gossypium herbaceum) which are heavily infested by the cotton aphid (Aphis gossypii) are treated by being dipped into the active compound preparation of the desired concentration.
as §2

In the case of `Cc1c(COC(=O)C2C(/C=C(\Cl)C(F)(F)F)C2(C)C)cccc1-c1ccccc1` (stereo not shown) [bifenthrin], the “Kill in % after 1d” value (Myzus persicae; 0.0064 g/ha) is reported as 0% and the “Kill in % after 6d” value (Spodoptera frugiperda; 0.8 g/ha) is reported as 0%.

With `CC1(C)C(C=C(Cl)Cl)C1C(=O)OC(C#N)c1cccc(Oc2ccccc2)c1` (stereo not shown) [cypermethrin] the “Kill in % after 6d” value (Phaedon cochleariae; 0.8 g/ha) was 17% and the “Kill in % after 6d” value (Spodoptera frugiperda; 0.8 g/ha) was 0%.

In the case of `CC1(C)C(/C=C(\Cl)C(F)(F)F)C1C(=O)OC(C#N)c1cccc(Oc2ccccc2)c1` [L-cyhalothrin, lambda-cyhalothrin], the “Kill in % after 1d” value (Myzus persicae; 0.16 g/ha) is reported as 10%, the “Kill in % after 6d” value (Tetranychus urticae; 0.032 g/ha) is reported as 0% and the “Kill in % after 1d” value (Aphis gossypii; 0.16 ppm) is reported as 20%.

With `CCOC(=O)OC1=C(c2cc(C)ccc2C)C(=O)N[C@]12CC[C@@H](OC)CC2` [compound (II)] the “Kill in % after 1d” value (Myzus persicae; 0.8 g/ha) was 20%, the “Kill in % after 1d” value (Myzus persicae; 20 g/ha) was 0% and the “Kill in % after 6d” value (Phaedon cochleariae; 4 g/ha) was 0%. The “Kill in % after 6d” value (Phaedon cochleariae; 20 g/ha) was 0%, the “Kill in % after 6d” value (Phaedon cochleariae; 100 g/ha) was 50% and the “Kill in % after 6d” value (Spodoptera frugiperda; 20 g/ha) was 17%. For the same compound, the “Kill in % after 6d” value (Spodoptera frugiperda; 100 g/ha) was 67%, the “Kill in % after 6d” value (Tetranychus urticae; 0.8 g/ha) was 50% and the “Kill in % after 2d” value (Tetranychus urticae; 4 g/ha) was 50%. The “Kill in % after 6d” value (Tetranychus urticae; 4 g/ha) was 90% and the “Kill in % after 2d” value (Tetranychus urticae; 100 g/ha) was 70%.

In the case of `CCOC(=O)OC1=C(c2cc(C)ccc2C)C(=O)NC12CCC(OC)CC2` (stereo not shown) [compound (II-a)], the “Kill in % after 1d” value (Myzus persicae; 0.8 g/ha) is reported as 20%, the “Kill in % after 1d” value (Myzus persicae; 20 g/ha) is reported as 0% and the “Kill in % after 6d” value (Phaedon cochleariae; 4 g/ha) is reported as 0%. The “Kill in % after 6d” value (Phaedon cochleariae; 20 g/ha) was 0%, the “Kill in % after 6d” value (Phaedon cochleariae; 100 g/ha) was 83% and the “Kill in % after 6d” value (Spodoptera frugiperda; 20 g/ha) was 17%. The “Kill in % after 6d” value (Spodoptera frugiperda; 100 g/ha) was 50%, the “Kill in % after 6d” value (Tetranychus urticae; 0.8 g/ha) was 60% and the “Kill in % after 2d” value (Tetranychus urticae; 4 g/ha) was 30%. The “Kill in % after 6d” value (Tetranychus urticae; 4 g/ha) was 90% and the “Kill in % after 2d” value (Tetranychus urticae; 100 g/ha) was 40%.

For `CC1(C)C(C=C(Cl)Cl)C1C(=O)OC(C#N)c1cccc(Oc2ccccc2)c1` (stereo not shown) [zeta-cypermethrin], the “Kill in % after 6d” value (Phaedon cochleariae; 0.16 g/ha) was 0%.

For `CC1(C)C(C=C(Cl)Cl)C1C(=O)OC(C#N)c1ccc(F)c(Oc2ccccc2)c1` (stereo not drawn) [β-cyfluthrin, betacyfluthrin], the “Kill in % after 1d” value (Myzus persicae; 0.0064 g/ha) was 0% and the “Kill in % after 6d” value (Tetranychus urticae; 0.0064 g/ha) was 0%.

In the case of `COC1CCC2(CC1)NC(=O)C(c1cc(C)ccc1C)=C2O` (stereo not shown) [compound (Ia)], the “Kill in % after 1d” value (Aphis gossypii; 4 ppm) is reported as 0%.

In the case of `CC1(C)[C@H](C(=O)O[C@H](C#N)c2cccc(Oc3ccccc3)c2)[C@@H]1C=C(Br)Br` [deltamethrin], the “Kill in % after 2d” value (Tetranychus urticae; 0.032 g/ha) is reported as 10%.

For `CC1(C)[C@H](/C=C(\Cl)C(F)(F)F)[C@@H]1C(=O)O[C@H](C#N)c1cccc(Oc2ccccc2)c1` [gamma-cyhalothrin], the “Kill in % after 1d” value (Myzus persicae; 0.0064 g/ha) was 0%.

With `CC1(C)C(C=C(Cl)Cl)C1C(=O)OC(C#N)c1cccc(Oc2ccccc2)c1` (stereo not drawn) [alpha-cypermethrin] the “Kill in % after 6d” value (Phaedon cochleariae; 0.8 g/ha) was 67%.

In the case of `CO[C@H]1CC[C@]2(CC1)NC(=O)C(c1cc(C)ccc1C)=C2O` [compound (I)], the “Kill in % after 1d” value (Aphis gossypii; 4 ppm) is reported as 0%.

From US20090281157A1, “Active Ingredient Combinations With Insecticidal and Acaricidal Properties” (Bayer Cropscience AG, priority 2006, published 2009)
